The test system of this assay is BDF1 mice, P388 leukemia ip, median survival T/C. Kind of assay: NCI In Vivo Anticancer Drug Screen. Data for tumor model P388 Leukemia (intraperitoneal) in B6D2F1 (BDF1) mice. To be noted: endpoint: median survival time, higher = longer survival. In a few lines:
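Antitumour effect was judged in vivo: survival in drug-treated mice, normalised to that of vehicle-dosed controls, gives the reported T/C.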

Setting [1] is: dose: 100.0 mg/kg/injection, schedule: Q04DX003 (ip), vehicle: saline with Tween-80.
[2] abbreviates: dose: 100.0 mg/kg/injection, schedule: Q01DX009 (ip), vehicle: saline with Tween-80.
Setting [3] is: dose: 200.0 mg/kg/injection, schedule: Q01DX009 (ip), vehicle: saline with Tween-80.
Where [4] appears, read: dose: 200.0 mg/kg/injection, schedule: Q04DX003 (ip), vehicle: saline with Tween-80.
Where [5] appears, read: dose: 400.0 mg/kg/injection, schedule: Q01DX009 (ip), vehicle: saline with Tween-80.
Setting [6] is: dose: 400.0 mg/kg/injection, schedule: Q04DX003 (ip), vehicle: saline with Tween-80.
Setting [7] is: dose: 66.0 mg/kg/injection, schedule: Q01DX009 (ip), vehicle: saline.
[8] abbreviates: dose: 25.0 mg/kg/injection, schedule: Q01DX009 (ip), vehicle: water.
The mark [9] stands for this setting: dose: 25.0 mg/kg/injection, schedule: Q04DX003 (ip), vehicle: water.
Where [10] appears, read: dose: 50.0 mg/kg/injection, schedule: Q01DX009 (ip), vehicle: water.
Setting [11] is: dose: 50.0 mg/kg/injection, schedule: Q04DX003 (ip), vehicle: water.
[12] abbreviates: dose: 100.0 mg/kg/injection, schedule: Q04DX003 (ip), vehicle: water.
Setting [13] is: dose: 25.0 mg/kg/injection, schedule: Q01DX009 (ip), vehicle: saline with Tween-80.
[14] abbreviates: dose: 100.0 mg/kg/injection, schedule: Q04DX003 (ip), vehicle: Klucel (hydroxypropylcellulose) (HPC).
The mark [15] stands for this setting: dose: 200.0 mg/kg/injection, schedule: Q04DX003 (ip), vehicle: Klucel (hydroxypropylcellulose) (HPC).
Setting [16] is: dose: 400.0 mg/kg/injection, schedule: Q04DX003 (ip), vehicle: Klucel (hydroxypropylcellulose) (HPC).

Several values for one entry are separate records, joined by “and”; a condition that tells them apart may be missing. Identical values can stand only once. Inconclusive results and toxic doses are left out.

Regarding `COCCNCCN1CCN(CCCN2c3ccccc3Sc3ccc(C(F)(F)F)cc32)CC1`, the T/C is, setting by setting: (dose: 20.0 mg/kg/injection, schedule: Q04DX003 (ip), vehicle: saline) 105 % of control and 106 % of control; (dose: 40.0 mg/kg/injection, schedule: Q04DX003 (ip), vehicle: saline) 108 % of control and 113 % of control; (dose: 80.0 mg/kg/injection, schedule: Q04DX003 (ip), vehicle: saline) 120 % of control.
Turning to `CC(C)N(C(C)C)C(C)CCNc1c2ccccc2nc2cc(Cl)ccc12` (stereo not drawn), the T/C (dose: 6.0 mg/kg/injection, schedule: Q01DX009 (ip), vehicle: saline) was 100 % of control; the T/C (dose: 12.0 mg/kg/injection, schedule: Q01DX009 (ip), vehicle: saline) is 105 % of control; the T/C (dose: 24.0 mg/kg/injection, schedule: Q01DX009 (ip), vehicle: saline) was 100 % of control.
As to `Nc1nc2c(ncn2C2OC(CO)C(O)C2O)c(=O)[nH]1` (stereo not drawn), under setting [1], the T/C is 157 % of control.
As for `CCN(O)C(N)=O`, the T/C was 108 % of control under setting [2]; 96 % of control and 104 % of control under setting [1]; 100 % of control under setting [3]; 88 % of control and 91 % of control under setting [4]; 100 % of control under setting [5]; 96 % of control and 100 % of control under setting [6].
In the case of `CCCCC[C@@H](CN(C)C)[C@H](O)/C=C/c1ccc(Cl)cc1`, the T/C (dose: 50.0 mg/kg/injection, schedule: Q01DX009 (ip), vehicle: Klucel (hydroxypropylcellulose) (HPC)) was 96 % of control.
On to `O=S(=O)(CCl)OCCCCOS(=O)(=O)CCl`, for which the T/C under setting [7] is 104 % of control.
With `CCOC(=O)C12CC=CC(CCC1)C2=O` (stereo not drawn) (tested in a mixture with another compound), the T/C is 100 % of control under setting [2]; 90 % of control under setting [1]; 104 % of control under setting [3]; 95 % of control under setting [4]; 90 % of control under setting [5]; 104 % of control under setting [6].
As to `CSc1ncc2cnccn12`, the T/C is, setting by setting: (dose: 12.5 mg/kg/injection, schedule: Q01DX009 (ip), vehicle: water) 105 % of control; under setting [8], 96 % of control; under setting [9], 100 % of control; under setting [10], 100 % of control; under setting [11], 104 % of control; under setting [12], 95 % of control.
With `O=C1CN(CCl)C(=O)CN1CCl`, the T/C was 100 % of control and 107 % of control (dose: 12.5 mg/kg/injection, schedule: Q04DX003 (ip), vehicle: water); 94 % of control under setting [8]; 92 % of control and 103 % of control under setting [9]; 92 % of control under setting [10]; 95 % of control and 107 % of control under setting [11]; 100 % of control (dose: 100.0 mg/kg/injection, schedule: Q01DX009 (ip), vehicle: water). Also, the T/C is 96 % of control under setting [12] and 94 % of control (dose: 200.0 mg/kg/injection, schedule: Q01DX009 (ip), vehicle: water).
For `O=C1CN(Cc2ccccc2)CC(=O)N2Cc3ccccc3CN12`, the T/C is 101 % of control (dose: 100.0 mg/kg/injection, schedule: Q01DX005 (ip), vehicle: saline with Tween-80) and 92 % of control (dose: 200.0 mg/kg/injection, schedule: Q01DX005 (ip), vehicle: saline with Tween-80).
In the case of `CCOC1OCN(C)CC1(C)C` (stereo not drawn), the T/C by setting is: (dose: 12.5 mg/kg/injection, schedule: Q01DX009 (ip), vehicle: saline with Tween-80) 115 % of control; under setting [13], 120 % of control; under setting [7], 115 % of control; (dose: 100.0 mg/kg/injection, schedule: Q01DX009 (ip), vehicle: saline) 119 % of control; (dose: 150.0 mg/kg/injection, schedule: Q01DX009 (ip), vehicle: saline) 154 % of control.
Regarding `CCCCN1CCC2(CC1)COCc1ccccc12`, the T/C runs as follows: (dose: 12.5 mg/kg/injection, schedule: Q04DX003 (ip), vehicle: saline with Tween-80) 104 % of control; (dose: 25.0 mg/kg/injection, schedule: Q04DX003 (ip), vehicle: saline with Tween-80) 98 % of control; (dose: 50.0 mg/kg/injection, schedule: Q04DX003 (ip), vehicle: saline with Tween-80) 95 % of control.
With `COC(CCC#N)c1ccc(C)cc1` (stereo not drawn), the T/C was 100 % of control (dose: 25.0 mg/kg/injection, schedule: Q04DX003 (sc), vehicle: olive oil, sesame oil, peanut oil); 95 % of control (dose: 50.0 mg/kg/injection, schedule: Q04DX003 (sc), vehicle: olive oil, sesame oil, peanut oil); 100 % of control (dose: 100.0 mg/kg/injection, schedule: Q04DX003 (sc), vehicle: olive oil, sesame oil, peanut oil).
Turning to `O=C(O)c1cc(C(Cl)(Cl)Cl)ccc1C(Cl)(Cl)Cl`, the T/C reads like this: (dose: 100.0 mg/kg/injection, schedule: Q04DX003 (ip), vehicle: saline sonified) 95 % of control; (dose: 400.0 mg/kg/injection, schedule: Q04DX003 (ip), vehicle: saline sonified) 104 % of control.
As to `CCC[CH2][Sn]([CH2]CCC)[CH2]CCC.CCC[CH2][Sn]([CH2]CCC)[CH2]CCC`, the T/C by setting is: (dose: 3.75 mg/kg/injection, schedule: Q01DX009 (ip), vehicle: saline with Tween-80) 110 % of control; (dose: 7.5 mg/kg/injection, schedule: Q01DX009 (ip), vehicle: saline with Tween-80) 92 % of control; (dose: 13.0 mg/kg/injection, schedule: Q04DX003 (ip), vehicle: saline with Tween-80) 112 % of control; (dose: 15.0 mg/kg/injection, schedule: Q01DX009 (ip), vehicle: saline with Tween-80) 114 % of control; (dose: 20.0 mg/kg/injection, schedule: Q04DX003 (ip), vehicle: saline with Tween-80) 100 % of control; (dose: 25.0 mg/kg/injection, schedule: Q01DX009 (ip), vehicle: Klucel (hydroxypropylcellulose) (HPC)) 95 % of control. The T/C (dose: 30.0 mg/kg/injection, schedule: Q04DX003 (ip), vehicle: saline with Tween-80) was 108 % of control.
As for `[N-]=[N+]=C1C(=O)NC(=O)N2C3CC(O)C(COC12)O3` (stereo not drawn), the T/C by setting is: (dose: 132.0 mg/kg/injection, schedule: Q01DX009 (ip), vehicle: saline with Tween-80) 154 % of control; under setting [3], 159 % of control and 170 % of control; (dose: 300.0 mg/kg/injection, schedule: Q01DX009 (ip), vehicle: saline with Tween-80) 170 % of control and 177 % of control.
As to `O=CNc1ccc(C(=O)O)cc1`, the T/C under setting [1] is 100 % of control, the T/C under setting [4] was 104 % of control and the T/C under setting [6] was 91 % of control.
With `CC(C)CSc1ncnc2nc[nH]c12`, the T/C is 90 % of control under setting [13]; 100 % of control (dose: 50.0 mg/kg/injection, schedule: Q01DX009 (ip), vehicle: saline with Tween-80); 104 % of control and 122 % of control under setting [2]; 104 % of control under setting [1]; 86 % of control under setting [4]; 86 % of control under setting [6].
On to `Cc1ccc(C)c(CCCC(=O)O)c1`, for which the T/C is, setting by setting: under setting [2], 95 % of control; under setting [1], 100 % of control; under setting [3], 109 % of control; under setting [4], 104 % of control; under setting [6], 108 % of control.
On to `COC(=O)CNC(=O)C(CSCc1ccccc1)NC(=O)OCc1ccccc1` (stereo not drawn), for which the T/C was 95 % of control under setting [14], 100 % of control under setting [15] and 90 % of control under setting [16].
On to `CCOc1cc(-c2nccc3cc(OC)c(OC)cc23)cc(OCC)c1OCC`, for which the T/C (dose: 100.0 mg/kg/injection, schedule: Q01DX009 (ip), vehicle: Klucel (hydroxypropylcellulose) (HPC)) is 110 % of control; the T/C under setting [14] was 100 % of control; the T/C (dose: 200.0 mg/kg/injection, schedule: Q01DX009 (ip), vehicle: Klucel (hydroxypropylcellulose) (HPC)) was 110 % of control; the T/C under setting [15] was 100 % of control; the T/C (dose: 400.0 mg/kg/injection, schedule: Q01DX009 (ip), vehicle: Klucel (hydroxypropylcellulose) (HPC)) was 110 % of control; the T/C under setting [16] is 100 % of control.

Source of the values: PubChem BioAssay AID328 (DTP/NCI, 2004).
